“And” between values parts separate entries of the source, which are not always exact repeats. Equal values may be shown once. Toxic doses and inconclusive results are not listed. Cut-off read from the data, not from the text of the source: active = T/C of 150% or more; inactive = T/C below 125%.
System: L1210 leukemia ip in BDF1 mice, survival T/C
Experiment: NCI In Vivo Anticancer Drug Screen. Data for tumor model L1210 Leukemia (intraperitoneal) in B6D2F1 (BDF1) mice
Settings: endpoint: mean survival time, higher = longer survival
Method in brief: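 Transplantable tumor model; survival measured in treated vs vehicle control mice. Value = treated/control.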

[1] = dose: 100.0 mg/kg/injection, schedule: Q01DX009 (ip), vehicle: saline with Tween-80
[2] = dose: 100.0 mg/kg/injection, schedule: Q04DX003 (ip), vehicle: Klucel (hydroxypropylcellulose) (HPC)
[3] = dose: 200.0 mg/kg/injection, schedule: Q01DX009 (ip), vehicle: saline with Tween-80
[4] = dose: 200.0 mg/kg/injection, schedule: Q04DX003 (ip), vehicle: Klucel (hydroxypropylcellulose) (HPC)
[5] = dose: 400.0 mg/kg/injection, schedule: Q01DX009 (ip), vehicle: saline with Tween-80
[6] = dose: 400.0 mg/kg/injection, schedule: Q04DX003 (ip), vehicle: Klucel (hydroxypropylcellulose) (HPC)
[7] = dose: 100.0 mg/kg/injection, schedule: Q04DX002 (ip), vehicle: Klucel (hydroxypropylcellulose) (HPC)
[8] = dose: 200.0 mg/kg/injection, schedule: Q04DX002 (ip), vehicle: Klucel (hydroxypropylcellulose) (HPC)
[9] = dose: 400.0 mg/kg/injection, schedule: Q04DX002 (ip), vehicle: Klucel (hydroxypropylcellulose) (HPC)
[10] = dose: 100.0 mg/kg/injection, schedule: Q04DX003 (ip), vehicle: saline
[11] = dose: 200.0 mg/kg/injection, schedule: Q04DX003 (ip), vehicle: saline
[12] = dose: 400.0 mg/kg/injection, schedule: Q04DX003 (ip), vehicle: saline
[13] = dose: 100.0 mg/kg/injection, schedule: Q04DX003 (ip), vehicle: saline with Tween-80
[14] = dose: 200.0 mg/kg/injection, schedule: Q04DX003 (ip), vehicle: saline with Tween-80
[15] = dose: 400.0 mg/kg/injection, schedule: Q04DX003 (ip), vehicle: saline with Tween-80
[16] = dose: 12.5 mg/kg/injection, schedule: Q01DX009 (ip), vehicle: saline
[17] = dose: 25.0 mg/kg/injection, schedule: Q01DX009 (ip), vehicle: saline

Measured: T/C

CSc1ccc(NC(=O)Nc2ccc(S(N)(=O)=O)cc2)cc1
inactive: [1] 106 % of control | [2] 104 % of control | [3] 95 % of control | [4] 100 % of control | [5] 102 % of control | [6] 98 % of control

CCN(CC)Cc1cc(Nc2c3ccc(Cl)cc3nc3ccc(OC)cc23)ccc1O
inactive: [7] 105 % of control | [8] 112 % of control | [9] 108 % of control

CCOc1ccc(NC(=S)N=Nc2c(O)[nH]c3c(Cl)cc(Cl)cc23)cc1
inactive: [10] 91 % of control | [11] 89 % of control | [12] 89 % of control

Nc1nc(Br)c(Br)nc1N
inactive: [13] 104 % of control | [14] 96 % of control | [15] 93 % of control

O=C(O)c1ccc(OCCCOc2ccccc2)c(Cl)c1
inactive: [13] 96 % of control | [14] 93 % of control

c1ccc([P+]2(c3ccccc3)CC[P+](c3ccccc3)(c3ccccc3)CC2)cc1
inactive: dose: 9.5 mg/kg/injection, schedule: Q01DX001 (ip), vehicle: saline 103 % of control | dose: 19.0 mg/kg/injection, schedule: Q01DX001 (ip), vehicle: saline 101 % of control | dose: 38.0 mg/kg/injection, schedule: Q01DX001 (ip), vehicle: saline 97 % of control | dose: 75.0 mg/kg/injection, schedule: Q01DX001 (ip), vehicle: saline 100 % of control

C=C(Br)CNC(C)=O
inactive: [16] 113 % of control | [17] 106 % of control | dose: 50.0 mg/kg/injection, schedule: Q01DX009 (ip), vehicle: saline 98 % of control | dose: 100.0 mg/kg/injection, schedule: Q01DX009 (ip), vehicle: saline 120 % of control | [10] 113 % of control | [11] 113 % of control

c1ccc2c(c1)ccc1c[n+]3c4ccccc4ccc3n12
inactive: dose: 0.62 mg/kg/injection, schedule: Q01DX009 (ip), vehicle: saline 105 % of control | dose: 1.25 mg/kg/injection, schedule: Q01DX009 (ip), vehicle: saline 113 % of control | dose: 2.5 mg/kg/injection, schedule: Q01DX009 (ip), vehicle: saline 123 % of control | dose: 5.0 mg/kg/injection, schedule: Q04DX003 (ip), vehicle: saline 106 % of control | dose: 10.0 mg/kg/injection, schedule: Q01DX001 (ip), vehicle: saline 109 % of control | dose: 20.0 mg/kg/injection, schedule: Q01DX001 (ip), vehicle: saline 105 % of control

OC1C2CC3C1C3C2c1ccccc1 (configuration not stated)
inactive: dose: 100.0 mg/kg/injection, schedule: Q01DX009 (ip), vehicle: Klucel (hydroxypropylcellulose) (HPC) 102 % of control | dose: 200.0 mg/kg/injection, schedule: Q01DX009 (ip), vehicle: Klucel (hydroxypropylcellulose) (HPC) 91 % of control

CC(C)C1CC2CCC3C(C)(C(=O)O)CCCC3(C)C2CC1CO (configuration not stated)
inactive: [13] 92 % of control | [14] 92 % of control | [15] 93 % of control

CN1C(=O)CC[n+]2ccccc21
inactive: [10] 101 % of control | [11] 104 % of control | [12] 86 % of control

Fc1ccc(CC(F)(F)F)cc1
inactive: dose: 100.0 mg/kg/injection, schedule: Q01DX001 (ip), vehicle: saline with Tween-80 97 % of control | dose: 200.0 mg/kg/injection, schedule: Q01DX001 (ip), vehicle: saline with Tween-80 105 % of control | dose: 400.0 mg/kg/injection, schedule: Q01DX001 (ip), vehicle: saline with Tween-80 98 % of control

Cc1ccccc1/C=N/Nc1nnc(N/N=C/c2ccccc2C)c2ccccc12
inactive: dose: 100.0 mg/kg/injection, schedule: Q01DX001 (ip), vehicle: carboxymethylcellulose (CMC) 91 % of control | dose: 200.0 mg/kg/injection, schedule: Q01DX001 (ip), vehicle: carboxymethylcellulose (CMC) 109 % of control | dose: 400.0 mg/kg/injection, schedule: Q01DX001 (ip), vehicle: carboxymethylcellulose (CMC) 95 % of control

CC(=O)Nc1ccc2c(c1)-c1ccccc1C2=O
inactive: [13] 98 % of control | [14] 100 % of control | [15] 98 % of control

Nc1nc(=O)n(CCCSc2ccc([N+](=O)[O-])cc2)cc1-c1ccc(Cl)c(Cl)c1
inactive: [2] 90 % of control | [4] 90 % of control | [6] 88 % of control

CC(C)(C)C(=O)C=C(C(F)(F)F)C(F)(F)F
inactive: dose: 6.25 mg/kg/injection, schedule: Q01DX009 (ip), vehicle: saline 106 % of control | dose: 6.25 mg/kg/injection, schedule: Q04DX003 (ip), vehicle: saline 100 % of control | [16] 106 % of control | dose: 12.5 mg/kg/injection, schedule: Q04DX003 (ip), vehicle: saline 97 % of control | [17] 108 % of control | dose: 25.0 mg/kg/injection, schedule: Q04DX003 (ip), vehicle: saline 105 % of control | dose: 50.0 mg/kg/injection, schedule: Q04DX003 (ip), vehicle: saline 96 % of control and 105 % of control

Cc1cc(Br)ccc1N
inactive: [1] 99 % of control | [3] 95 % of control | [5] 99 % of control

CC(=O)c1cccc([N+](=O)[O-])c1O
inactive: dose: 100.0 mg/kg/injection, schedule: Q01DX001 (ip), vehicle: saline 95 % of control | dose: 200.0 mg/kg/injection, schedule: Q01DX001 (ip), vehicle: saline 94 % of control | dose: 400.0 mg/kg/injection, schedule: Q01DX001 (ip), vehicle: saline 91 % of control

COC1=C(c2ccccc2)P(=O)(Cc2ccccc2)C(C)C1 (configuration not stated)
inactive: [7] 108 % of control | [8] 96 % of control | [9] 93 % of control

COc1c(C)c(C)c(OC)c(C(C)O)c1C (configuration not stated)
inactive: dose: 100.0 mg/kg/injection, schedule: Q04DX003 (ip), vehicle: other 92 % of control | dose: 200.0 mg/kg/injection, schedule: Q04DX003 (ip), vehicle: other 100 % of control | dose: 400.0 mg/kg/injection, schedule: Q04DX003 (ip), vehicle: other 97 % of control

From PubChem BioAssay AID248 (DTP/NCI, 2004)
